Where two headings read alike, the source gives them in different places.
Legend:
BCL2 = BCL2 (Homo sapiens (Human), UniProt P10415); experiment: Molecular level activity test of anti-apoptotic protein BCL2 (HTRF, binding to Bim peptide); conditions: HTRF, binding of BCL2 to Bim peptide; read-out: BCL2 nM (inhibitory activity, IC50)
Method in brief: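 Step one: compound, supplied in 2% DMSO, is mixed with His-tagged BCL2 and biotinylated Bim peptide and reacted for 1 h. Step two: anti-His and streptavidin-XL665 reagents in detection buffer are added. Step three: after a 4 h room-temperature incubation, time-resolved fluorescence is measured.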

BCL2 (G101V) = BCL2 (G101V) (Homo sapiens (Human), UniProt P10415, G101V); experiment: Molecular level activity test of anti-apoptotic protein BCL2 (G101V) (HTRF, binding to Bim peptide); conditions: inhibition of BCL2 (G101V) binding to Bim peptide, read-out: BCL-2 (G101V)
Procedure: (§1) The detection of the binding ability between anti-apoptotic protein BCL2 (G101V) and pro-apoptotic protein Bim was performed using Homogeneous Time-Resolved Fluorescence technology. The reaction of this method occurred in a white shallow 384-well plate, with a total reaction volume of 10 μL. Specifically, it included 2 μL of the compound to be tested (2% DMSO), 4 μL His-tagged recombinant protein, and 4 μL Biotin-tagged BIM protein peptide. After 1 hour of reaction, 5 L of each Anti-His and streptavidin-tagged XL665 antibody diluents diluted with a detection buffer were added. After incubating at room temperature for 4 hours, the values were read using the Envision multifunctional microplate reader to detect the effect of the compound to be tested on the binding ability of BCL2 (G101V) to BIM protein peptides.

BCL2 (D103Y) = BCL2 (D103Y) (Homo sapiens (Human), UniProt P10415, D103Y); experiment: Molecular level activity test of BCL2 (D103Y) (HTRF, binding to Bim peptide); conditions: read-out: BCL-2 (D103Y) (nM) (inhibitory activity, IC50)
Procedure: as §1, with “BCL2 (D103Y)” for “BCL2 (G101V)”, “5 μL” for “5 L”

RS4; 11 cells = experiment: Tumor proliferation inhibitory activity test (MTS) on RS4; 11; type: cell-based; conditions: Homo sapiens, RS4-11, 72 h, 3 days incubation
Procedure: The cell proliferation inhibitory ability of the compounds on RS4; 11 was tested using the MTS method. MTS is a tetrazolium blue salt compound that can be reduced by various dehydrogenases in live cell mitochondria to their respective colored methylzan products. Its color depth is highly correlated with the number of live cells in certain sensitive cell lines within a certain range. RS4; 11, RS4; 11 (BCL-2-G101V) and MOLT-4 tumor cells were cultivated separately and collected, 180 μL of cell suspension was added to each well in a 96-well cell plate, 20 μL of DMSO with a final concentration of 0.2% was added to the control cell wells, 20 μL of gradient diluted compounds were added to cell wells, and the treated cells were incubated in a 5% CO2 incubator at 37° C. for 3 days. After the incubation was completed, the reaction solution was prepared according to the MTS reagent kit, 20 μL was added per well and incubated in a 5% CO2 incubator at 37° C. for 3-4 hours. The absorbance value at 490 nm was read using an enzyme-linked immunosorbent assay (ELISA) plate, and the absorbance value at 690 nm was used as the background value, with OD490 nm-OD690 nm as the final raw data. The formula for calculating the inhibition ratio of compounds was as follows: inhibition ratio=(ODDMSO−ODCompound)/(ODDMSO−ODblank)×100%.

BCL-XL = BCL-XL (Homo sapiens (Human), UniProt Q07817); experiment: BCL-XL enzyme molecular level activity test (HTRF, binding to BIM peptide); conditions: binding of BCL-XL to BIM peptide, read-out: BCL-XL inhibitory activity (IC50)
BCL-XL, sequence (Q07817 whole entry): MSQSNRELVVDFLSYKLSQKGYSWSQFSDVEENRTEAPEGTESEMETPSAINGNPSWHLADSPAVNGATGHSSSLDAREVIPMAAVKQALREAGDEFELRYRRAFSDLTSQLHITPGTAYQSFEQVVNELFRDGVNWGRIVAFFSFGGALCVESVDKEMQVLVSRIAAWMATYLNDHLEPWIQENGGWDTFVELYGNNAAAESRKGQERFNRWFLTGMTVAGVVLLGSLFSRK
Procedure: In a white shallow 384-well plate, a total reaction volume was 10 μL. Specifically, it included 2 μL of the compound to be tested (2% DMSO), […] His-tagged recombinant protein, and 4 μL Biotin-tagged BIM protein peptide. After 1 hour of reaction, 5 μL of each Anti-His and streptavidin-tagged XL665 antibody diluents diluted with a detection buffer were added. After incubating at room temperature for 4 hours, the values were read using the Envision multifunctional microplate reader to detect the effect of the compound to be tested on the binding ability of BCL-XL to BIM protein peptides. The Envision parameter settings were exciting light at 320 nm, and emitting light at 615 nm and 665 nm. The binding ability of anti-apoptotic proteins to Bim protein peptides was indirectly reflected by the signal ratio of 665 nm and 615 nm. In the reaction, background wells without BCL2 and active wells for full binding of recombinant proteins without compounds and Bim protein peptides were set up.

| Structure (SMILES) | IC50 (BCL2) | IC50 (BCL2 (G101V)) | IC50 (BCL2 (D103Y)) | IC50 (RS4; 11 cells) | IC50 (BCL-XL; values in nM) | IC50 (BCL-XL; values given in μM) |
| --- | --- | --- | --- | --- | --- | --- |
| COc1ccc(CN2CCN(C3CC4(CCN(c5cc(Oc6cnc7[nH]ccc7c6)c(C(=O)NS(=O)(=O)c6ccc(NCC7(F)CCOCC7)c([N+](=O)[O-])c6)cc5F)CC4)C3)[C@H](c3ccccc3C(C)C)C2)cc1CN(C)C [compound 250, (R)-2-((1H-pyrrolo[2,3-b]pyrid-5-yl)oxy)-4-(2-(4-(3-((dimethylamino)methyl)-4-methoxybenzyl)-2-(2-isopropylphenyl)piperazin-1-yl)-7-azaspiro[3.5]non-7-yl)-5-fluoro-N-((4-(((4-fluorotetrahydro-2H-pyran-4-yl)methyl)amino)-3-nitrophenyl)sulfonyl)benzamide] | < 10 nM | < 10 nM | < 10 nM | 0.5 to 1 nM | > 500 nM |  |
| COc1ccc(CN2CCN(C3CC4(CCN(c5ccc(C(=O)NS(=O)(=O)c6cc([N+](=O)[O-])c(NCC7CCOCC7)c7c6OCO7)c(Oc6cnc7[nH]ccc7c6)c5)CC4)C3)[C@H](c3ccccc3C(C)C)C2)cc1 [compound 145, (R)-2-((1H-pyrrolo[2,3-b]pyrid-5-yl)oxy)-4-(2-(2-(2-isopropylphenyl)-4-(4-methoxybenzyl)piperazin-1-yl)-7-azaspiro[3.5]non-7-yl)-N-((6-nitro-7-(((tetrahydro-2H-pyran-4-yl)methyl)amino)benzo[d][1,3]dioxocyclopent-4-yl)sulfonyl)benzamide] | < 10 nM | < 10 nM | < 10 nM | < 0.5 nM |  | > 1000 nM |
| CNCc1cc(CN2CCN(C3CC4(CCN(c5cc(Oc6cnc7[nH]ccc7c6)c(C(=O)NS(=O)(=O)c6ccc(NCC7(F)CCOCC7)c([N+](=O)[O-])c6)cc5F)CC4)C3)[C@H](c3ccccc3C(C)C)C2)ccc1OC [compound 249, (R)-2-((1H-pyrrolo[2,3-b]pyrid-5-yl)oxy)-5-fluoro-N-((4-(((4-fluorotetrahydro-2H-pyran-4-yl)methyl)amino)-3-nitrophenyl)sulfonyl)-4-(2-(2-(2-isopropylphenyl)-4-(4-methoxy-3-((methylamino)methyl)benzyl)piperazin-1-yl)-7-azaspiro[3.5]non-7-yl)benzamide] | < 10 nM | < 10 nM | < 10 nM | 0.5 to 1 nM | > 500 nM |  |
| CC(C)c1ccccc1[C@@H]1CN(Cc2ccc(CN(C)C)cc2)CCN1C1CC2(CCN(c3cc(Oc4cnc5[nH]ccc5c4)c(C(=O)NS(=O)(=O)c4ccc(NCC5(F)CCOCC5)c([N+](=O)[O-])c4)cc3F)CC2)C1 [compound 244, (R)-2-((1H-pyrrolo[2,3-b]pyrid-5-yl)oxy)-4-(2-(4-(4-((dimethylamino)methyl)benzyl)-2-(2-isopropylphenyl)piperazin-1-yl)-7-azaspiro[3.5]non-7-yl)-5-fluoro-N-((4-(((4-fluorotetrahydro-2H-pyran-4-yl)methyl)amino)-3-nitrophenyl)sulfonyl)benzamide] | < 10 nM | < 10 nM | < 10 nM | 0.5 to 1 nM | > 500 nM |  |
| COc1ccc(CN2CCN(C3CC4(CCN(c5cc(Oc6cnc7[nH]cc(F)c7c6)c(C(=O)NS(=O)(=O)c6ccc(NCC7CCOCC7)c([N+](=O)[O-])c6)cc5F)CC4)C3)[C@H](c3ccccc3C(C)C)C2)cc1 [compound 240, (R)-5-fluoro-2-((3-fluoro-1H-pyrrolo[2,3-b]pyrid-5-yl)oxy)-4-(2-(2-(2-isopropylphenyl)-4-(4-methoxybenzyl)piperazin-1-yl)-7-azaspiro[3.5]non-7-yl)-N-((3-nitro-4-(((tetrahydro-2H-pyran-4-yl)methyl)amino)phenyl)sulfonyl)benzamide] | < 10 nM | < 10 nM | < 10 nM | 0.5 to 1 nM | > 500 nM |  |
| COc1cc(CN2CCN(C3CC4(CCN(c5cc(Oc6cnc7[nH]ccc7c6)c(C(=O)NS(=O)(=O)c6ccc(NCC7(F)CCOCC7)c([N+](=O)[O-])c6)cc5F)CC4)C3)[C@H](c3ccccc3C(C)C)C2)ccc1CN1CCCC1 [compound 248, (R)-2-((1H-pyrrolo[2,3-b]pyrid-5-yl)oxy)-5-fluoro-N-((4-(((4-fluorotetrahydro-2H-pyran-4-yl)methyl)amino)-3-nitrophenyl)sulfonyl)-4-(2-(2-(2-isopropylphenyl)-4-(3-methoxy-4-(pyrrolidin-1-ylmethyl)benzyl)piperazin-1-yl)-7-azaspiro[3.5]non-7-yl)benzamide] | < 10 nM | < 10 nM | < 10 nM | 0.5 to 1 nM | > 500 nM |  |
| COc1ccc(CN2CCN(C3CC4(CCN(c5cc(Oc6cnc7[nH]cc(F)c7c6)c(C(=O)NS(=O)(=O)c6ccc(NCC7(F)CCOCC7)c([N+](=O)[O-])c6)cc5F)CC4)C3)[C@H](c3ccccc3C(C)C)C2)cn1 [compound 254, (R)-5-fluoro-2-((3-fluoro-1H-pyrrolo[2,3-b]pyrid-5-yl)oxy)-N-((4-(((4-fluorotetrahydro-2H-pyran-4-yl)methyl)amino)-3-nitrophenyl)sulfonyl)-4-(2-(2-(2-isopropylphenyl)-4-((6-methoxypyrid-3-yl)methyl)piperazin-1-yl)-7-azaspiro[3.5]non-7-yl)benzamide] | < 10 nM | < 10 nM | < 10 nM | 0.5 to 1 nM | > 500 nM |  |
| CC(C)c1ccccc1[C@@H]1CCCN1C1CC2(CCN(c3cc(Oc4cnc5[nH]ccc5c4)c(C(=O)NS(=O)(=O)c4cc([N+](=O)[O-])c(NCC5(F)CCN(C6COC6)CC5)c5[nH]cnc45)cn3)CC2)C1 [compound 019, (S)-4-((1H-pyrrolo[2,3-b]pyrid-5-yl)oxy)-N-((7-(((4-fluoro-1-(oxocyclobut-3-yl)piperid-4-yl)methyl)amino)-6-nitro-1H-benzo[d]imidazol-4-yl)sulfonyl)-6-(2-(2-(2-isopropylphenyl)pyrrolidin-1-yl)-7-azaspiro[3.5]non-7-yl) nicotinamide] | < 10 nM | < 10 nM | < 10 nM | 0.5 to 1 nM |  | > 1000 nM |
| COc1ccc(CN2CCN(C3CC4(CCN(c5cc(Oc6cnc7[nH]ccc7c6)c(C(=O)NS(=O)(=O)c6ccc(NC[C@H]7CC[C@](C)(O)CC7)c([N+](=O)[O-])c6)cc5F)CC4)C3)[C@H](c3ccccc3C(C)C)C2)cc1OC [compound 237, 2-((1H-pyrrolo[2,3-b]pyrid-5-yl)oxy)-4-(2-((R)-4-(3,4-dimethoxybenzyl)-2-(2-isopropylphenyl)piperazin-1-yl)-7-azaspiro[3.5]non-7-yl)-5-fluoro-N-((4-((((1r, 4r)-4-hydroxy-4-methylcyclohexyl)methyl)amino)-3-nitrophenyl)sulfonyl)benzamide] | < 10 nM | < 10 nM | < 10 nM | 0.5 to 1 nM | > 500 nM |  |

From US20250034135A1, “ANTI-APOPTOTIC PROTEIN BCL-2 INHIBITOR, PHARMACEUTICAL COMPOSITION AND USES THEREOF” (HANGZHOU HEALZEN THERAPEUTICS CO., LTD., priority 2021, published 2025)
